How the values were obtained:
Details in all cases: 72 h
Calu-3 [1] = assay: relative viability EC50 (midpoint between 100% and the lowest measured viability); higher = less toxic
Vero E6 [2] = assay: as above
U2OS [3] = assay: as above
HepG2 [4] = assay: as above
Caco-2 [5] = assay: as above
Calu-3 [6] = assay: drug sensitivity score (DSS) for viability; higher = more toxic; extreme values may be limits of the assay
Vero E6 [7] = assay: as above
U2OS [8] = assay: as above
HepG2 [9] = assay: as above
Caco-2 [10] = assay: as above
Calu-3 [11] = assay: cell viability relative to DMSO; higher = less toxic
Vero E6 [12] = assay: as above
U2OS [13] = assay: as above
HepG2 [14] = assay: as above
Caco-2 [15] = assay: as above

| SMILES | relative viability EC50 (Calu-3 [1]) [µM] | relative viability EC50 (Vero E6 [2]) [µM] | relative viability EC50 (U2OS [3]) [µM] | relative viability EC50 (HepG2 [4]) [µM] | relative viability EC50 (Caco-2 [5]) [µM] | drug sensitivity score (Calu-3 [6]) | drug sensitivity score (Vero E6 [7]) | drug sensitivity score (U2OS [8]) | drug sensitivity score (HepG2 [9]) | drug sensitivity score (Caco-2 [10]) | cell viability (Calu-3 [11]; 1 nM) [%] | cell viability (Calu-3 [11]; 10 nM) [%] | cell viability (Calu-3 [11]; 100 nM) [%] | cell viability (Calu-3 [11]; 1000 nM) [%] | cell viability (Calu-3 [11]; 10000 nM) [%] | cell viability (Vero E6 [12]; 1 nM) [%] | cell viability (Vero E6 [12]; 10 nM) [%] | cell viability (Vero E6 [12]; 100 nM) [%] | cell viability (Vero E6 [12]; 1000 nM) [%] | cell viability (Vero E6 [12]; 10000 nM) [%] | cell viability (U2OS [13]; 1 nM) [%] | cell viability (U2OS [13]; 10 nM) [%] | cell viability (U2OS [13]; 100 nM) [%] | cell viability (U2OS [13]; 1000 nM) [%] | cell viability (U2OS [13]; 10000 nM) [%] | cell viability (HepG2 [14]; 1 nM) [%] | cell viability (HepG2 [14]; 10 nM) [%] | cell viability (HepG2 [14]; 100 nM) [%] | cell viability (HepG2 [14]; 1000 nM) [%] | cell viability (HepG2 [14]; 10000 nM) [%] | cell viability (Caco-2 [15]; 1 nM) [%] | cell viability (Caco-2 [15]; 10 nM) [%] | cell viability (Caco-2 [15]; 100 nM) [%] | cell viability (Caco-2 [15]; 1000 nM) [%] | cell viability (Caco-2 [15]; 10000 nM) [%] |
| --- | --- | --- | --- | --- | --- | --- | --- | --- | --- | --- | --- | --- | --- | --- | --- | --- | --- | --- | --- | --- | --- | --- | --- | --- | --- | --- | --- | --- | --- | --- | --- | --- | --- | --- | --- |
| OC[C@H]1O[C@@H](c2ccc(F)c(Cc3cc4ccccc4s3)c2)[C@H](O)[C@@H](O)[C@@H]1O [ipragliflozin-L-proline] | > 10 | > 10 | > 10 | > 10 | > 10 | 0 | 0 | 0 | 0 | 0 | 92.4 | 108 | 98 | 110 | 100 | 110 | 104 | 105 | 99.4 | 103 | 99.2 | 98.7 | 99.4 | 104 | 99 | 108 | 101 | 105 | 96.3 | 111 | 108 | 99.8 | 100 | 101 | 100 |
| COc1ccccc1NC(=O)OCC1CCN(C(=O)OC(C)(C)C)CC1 | > 10 | > 10 | > 10 | > 10 | > 10 | 0 | 0 | 0 | 0 | 0 | 108 | 102 | 94.5 | 109 | 108 | 97.4 | 102 | 99.8 | 99.2 | 95.2 | 96.8 | 99 | 94.4 | 99.1 | 94.7 | 111 | 108 | 100 | 94.5 | 104 | 89.2 | 96.2 | 101 | 97.9 | 97.9 |
| CNC(=O)c1ccc2c(c1)S(=O)(=O)c1ccccc1C2=O [BW-616U] | > 10 | > 10 | > 10 | > 10 | > 10 | 0 | 0 | 0 | 0 | 0 | 115 | 104 | 102 | 100 | 96.7 | 95.2 | 95.9 | 98.1 | 109 | 106 | 99.1 | 95 | 100 | 99.4 | 98.9 | 109 | 106 | 92.7 | 110 | 104 | 96.6 | 108 | 111 | 92.4 | 99.4 |
| C=CC(=O)Nc1cccc(Oc2nc(Nc3ccc(N4CCN(C)CC4)cc3)ncc2Cl)c1 [WZ-3146] | 0.539 | 1.11 | 1.46 | 1.16 | 1.56 | 13.9 | 10.3 | 9.7 | 6.7 | 8.3 | 95.9 | 89.9 | 86.4 | 36.9 | 2.3 | 104 | 99.3 | 106 | 59.9 | 7.8 | 97.6 | 100 | 95.5 | 72.1 | 0.2 | 108 | 100 | 109 | 75 | 38.7 | 90.7 | 100 | 99.3 | 78.3 | 11.6 |
| CC(=O)N1CC[N+](C)(C)CC1 [4-acetyl-1,1-dimethylpiperazinium] | > 10 | > 10 | > 10 | > 10 | > 10 | 0 | 0 | 0 | 0 | 0 | 102 | 101 | 97 | 102 | 88.6 | 100 | 111 | 106 | 96.8 | 101 | 101 | 100 | 97.5 | 102 | 95 | 93.6 | 109 | 111 | 97.9 | 91.2 | 100 | 100 | 98.7 | 98.2 | 97.9 |
| NCCCCCCCCCCNS(=O)(=O)c1cccc2c(Cl)cccc12 [A-7] | > 10 | > 10 | > 10 | > 10 | > 10 | 0 | 0 | 0 | 0 | 0 | 97.8 | 98.8 | 96.5 | 95.9 | 95.1 | 97.3 | 98.4 | 95.2 | 101 | 94.7 | 99.2 | 106 | 97.4 | 99.8 | 93.9 | 112 | 102 | 98.6 | 108 | 95.8 | 108 | 95.5 | 107 | 99.7 | 97.3 |
| COC(=O)c1ccc(N2CCN(C)CC2)c(NC(=O)c2cccc(OC)c2)c1 [WDR5-0103] | > 10 | > 10 | > 10 | > 10 | > 10 | 0 | 0 | 0 | 0 | 0 | 98.9 | 93.4 | 99.5 | 97.4 | 97.8 | 94.6 | 98.2 | 94.2 | 102 | 103 | 98.5 | 94.8 | 96.8 | 95.5 | 101 | 102 | 114 | 85.5 | 112 | 102 | 88.8 | 97.5 | 91.7 | 99.9 | 89.8 |
